Values after ≈ are worked out from the molar mass of the structure shown. Starred links: 1 amine or outer side, 2 acyl side, 3 side chain; linkers in the order of their positions; H or OH if unused. Positions of bridges follow the written chain, without caps; N, C: chain ends. Non-standard residues stand in square brackets, D forms with d. Residues, ends and D or L forms follow the SMILES beside them. X1 = N=C(NCCC[C@H](N[*:1])C(=O)[*:2])N[C@@H]1O[C@H](CO)[C@@H](O[C@H]2O[C@H](CO)[C@@H](O[C@H]3O[C@H](CO)[C@@H](O)[C@H](O)[C@H]3O)[C@H](O)[C@H]2O)[C@H](O)[C@H]1O; Arg(Nω-βLac) = N=C(NCCC[C@H](N)C(=O)O)N[C@@H]1O[C@H](CO)[C@@H](O[C@@H]2O[C@H](CO)[C@H](O)[C@H](O)[C@H]2O)[C@H](O)[C@H]1O; X2 = CC(=O)N[C@@H]1[C@@H](O)[C@H](O)[C@@H](CO)O[C@H]1NC(=N)NCCC[C@H](N[*:1])C(=O)[*:2]; S5 = C=CCCC[C@](C)(N)C(=O)O
How the values were obtained:
Staphylococcus aureus = test: Antimicrobial activity against methicillin-resistant Staphylococcus aureus ATCC 43300 assessed as growth inhibition measured after 8 hrs incubation by standard broth dilution assay; type: functional
[1] = Hemolytic activity in BALB/c mouse red blood cells assessed as hemolysis incubated for 1 hrs; type: toxicity, cell-based, Erythrocyte; settings: read-out: HD50
Pseudomonas aeruginosa = test: Antimicrobial activity against Pseudomonas aeruginosa ATCC 27853 assessed as growth inhibition measured after 8 hrs incubation by standard broth dilution assay; type: functional
Klebsiella pneumoniae = test: Antimicrobial activity against Klebsiella pneumoniae ATCC 13883 assessed as growth inhibition measured after 8 hrs incubation by standard broth dilution assay; type: functional
Streptococcus pneumoniae = test: Antimicrobial activity against Streptococcus pneumoniae ATCC 49619 assessed as growth inhibition measured after 8 hrs incubation by standard broth dilution assay; type: functional

Compound | MIC (Staphylococcus aureus) | HC50 at 1 h [1] | MIC (Pseudomonas aeruginosa) | MIC (Klebsiella pneumoniae) | MIC (Streptococcus pneumoniae)
CC(=O)N[C@@H](CC(C)C)C(=O)N[C@@H](CCCCN)C(=O)N[C@@H](CCCNC(=N)N)C(=O)N[C@H](C(=O)N[C@@H](Cc1c[nH]c2ccccc12)C(=O)N[C@@H](CCCCN)C(=O)N[C@@H](CCCNC(=N)N)C(=O)N[C@H](C(=O)N[C@@H](Cc1ccccc1)C(=O)N[C@@H](CCCCN)C(=O)N[C@@H](CC(C)C)C(=O)N[C@@H](CC(C)C)C(=O)N[C@@H](CCCCN)C(=O)N[C@@]1(C)CCC/C=C\CCC[C@@](C)(C(=O)N[C@@H](CC(C)C)C(=O)N[C@@H](CCCCN)C(=O)N[C@@H](CCCCN)C(=O)N2CCC[C@H]2C(=O)N[C@@H](CCCCN)C(=O)N[C@@H](CCCNC(=N)N)C(N)=O)NC(=O)[C@H](CCCNC(=N)N)NC(=O)[C@H](Cc2c[nH]c3ccccc23)NC(=O)[C@H](Cc2ccc(O)cc2)NC1=O)C(C)C)C(C)C (Ac-LKRVWKRVFKLLK[S5]YWR[S5]LKKPKR-NH2; staple (Z) 14-18) | 4.9 µg/mL (≈ 1.5 µM) | 8.9 µg/mL | 5 µg/mL (≈ 1.53 µM) | 19.2 µg/mL (≈ 5.89 µM) | 4.7 µg/mL (≈ 1.44 µM)
CC(=O)N[C@@H](CC(C)C)C(=O)N[C@@H](CCCCN)C(=O)N[C@@H](CCCNC(=N)N)C(=O)N[C@H](C(=O)N[C@@H](Cc1c[nH]c2ccccc12)C(=O)N[C@@H](CCCCN)C(=O)N[C@@H](CCCNC(=N)N)C(=O)N[C@H](C(=O)N[C@@H](Cc1ccccc1)C(=O)N[C@@H](CCCCN)C(=O)N[C@@H](CC(C)C)C(=O)N[C@@H](CC(C)C)C(=O)N[C@@H](CCCCN)C(=O)N[C@@]1(C)CCC/C=C\CCC[C@@](C)(C(=O)N[C@@H](CC(C)C)C(=O)N[C@@H](CCCCN)C(=O)N[C@@H](CCCCN)C(=O)N2CCC[C@H]2C(=O)N[C@H](C(=O)N[C@@H](CCCNC(=N)N)C(N)=O)C(C)C)NC(=O)[C@H](CCCNC(=N)N)NC(=O)[C@H](Cc2c[nH]c3ccccc23)NC(=O)[C@H](Cc2ccc(O)cc2)NC1=O)C(C)C)C(C)C (Ac-LKRVWKRVFKLLK[S5]YWR[S5]LKKPVR-NH2; staple (Z) 14-18) | 4.9 µg/mL (≈ 1.52 µM) | 12.2 µg/mL | 5 µg/mL (≈ 1.55 µM) | 2.5 µg/mL (≈ 0.773 µM) | 2.4 µg/mL (≈ 0.742 µM)
CC(=O)N[C@@H](CC(C)C)C(=O)N[C@@H](CCCCN)C(=O)N[C@@H](CCCNC(=N)N)C(=O)N[C@H](C(=O)N[C@@H](Cc1c[nH]c2ccccc12)C(=O)N[C@@H](CCCCN)C(=O)N[C@@H](CCCNC(=N)N)C(=O)N[C@H](C(=O)N[C@@H](CCCCN)C(=O)N[C@@H](CCCCN)C(=O)N[C@@H](CC(C)C)C(=O)N[C@@H](CC(C)C)C(=O)N[C@@H](CCCCN)C(=O)N[C@@]1(C)CCC/C=C\CCC[C@@](C)(C(=O)N[C@@H](CC(C)C)C(=O)N[C@@H](CCCCN)C(=O)N[C@@H](CCCCN)C(=O)N2CCC[C@H]2C(=O)N[C@H](C(=O)N[C@@H](CCCNC(=N)N)C(N)=O)C(C)C)NC(=O)[C@H](CCCNC(=N)N)NC(=O)[C@H](Cc2c[nH]c3ccccc23)NC(=O)[C@H](Cc2ccc(O)cc2)NC1=O)C(C)C)C(C)C (Ac-LKRVWKRVKKLLK[S5]YWR[S5]LKKPVR-NH2; staple (Z) 14-18) | 4.9 µg/mL (≈ 1.52 µM) | 38 µg/mL | 5 µg/mL (≈ 1.56 µM) | 19.2 µg/mL (≈ 5.97 µM) | 2.4 µg/mL (≈ 0.747 µM)
CC(=O)N[C@@H](CC(C)C)C(=O)N[C@@H](CCCCN)C(=O)N[C@@H](CCCNC(=N)N[C@@H]1O[C@H](CO)[C@@H](O[C@@H]2O[C@H](CO)[C@H](O)[C@H](O)[C@H]2O)[C@H](O)[C@H]1O)C(=O)N[C@H](C(=O)N[C@@H](Cc1c[nH]c2ccccc12)C(=O)N[C@@H](CCCCN)C(=O)N[C@@H](CCCNC(=N)N)C(=O)N[C@H](C(=O)N[C@@H](Cc1ccccc1)C(=O)N[C@@H](CCCCN)C(=O)N[C@@H](CC(C)C)C(=O)N[C@@H](CC(C)C)C(=O)N[C@@H](CCCCN)C(=O)N[C@@H](CCCNC(=N)N)C(=O)N[C@@H](Cc1ccc(O)cc1)C(=O)N[C@@H](Cc1c[nH]c2ccccc12)C(=O)N[C@@H](CCCNC(=N)N)C(=O)N[C@@H](CCC(N)=O)C(=O)N[C@@H](CC(C)C)C(=O)N[C@@H](CCCCN)C(=O)N[C@@H](CCCCN)C(=O)N1CCC[C@H]1C(=O)N[C@H](C(=O)N[C@@H](CCCNC(=N)N)C(N)=O)C(C)C)C(C)C)C(C)C (Ac-LK[Arg(Nω-βLac)]VWKRVFKLLKRYWRQLKKPVR-NH2) | 4.9 µg/mL (≈ 1.36 µM) | 33.8 µg/mL | 5 µg/mL (≈ 1.39 µM) | 38 µg/mL (≈ 10.6 µM) | 9.9 µg/mL (≈ 2.76 µM)
CC(=O)N[C@@H](CC(C)C)C(=O)N[C@@H](CCCCN)C(=O)N[C@@H](CCCNC(=N)N[C@@H]1O[C@H](CO)[C@@H](O[C@H]2O[C@H](CO)[C@@H](O[C@H]3O[C@H](CO)[C@@H](O)[C@H](O)[C@H]3O)[C@H](O)[C@H]2O)[C@H](O)[C@H]1O)C(=O)N[C@H](C(=O)N[C@@H](Cc1c[nH]c2ccccc12)C(=O)N[C@@H](CCCCN)C(=O)N[C@@H](CCCNC(=N)N)C(=O)N[C@H](C(=O)N[C@@H](Cc1ccccc1)C(=O)N[C@@H](CCCCN)C(=O)N[C@@H](CC(C)C)C(=O)N[C@@H](CC(C)C)C(=O)N[C@@H](CCCCN)C(=O)N[C@@H](CCCNC(=N)N)C(=O)N[C@@H](Cc1ccc(O)cc1)C(=O)N[C@@H](Cc1c[nH]c2ccccc12)C(=O)N[C@@H](CCCNC(=N)N)C(=O)N[C@@H](CCC(N)=O)C(=O)N[C@@H](CC(C)C)C(=O)N[C@@H](CCCCN)C(=O)N[C@@H](CCCCN)C(=O)N1CCC[C@H]1C(=O)N[C@H](C(=O)N[C@@H](CCCNC(=N)N)C(N)=O)C(C)C)C(C)C)C(C)C (Ac-LK[X1]VWKRVFKLLKRYWRQLKKPVR-NH2) | 2.5 µg/mL (≈ 0.666 µM) | 58.1 µg/mL | 5 µg/mL (≈ 1.33 µM) | 38 µg/mL (≈ 10.1 µM) | 16.9 µg/mL (≈ 4.5 µM)
CC(=O)N[C@@H]1[C@@H](O)[C@H](O)[C@@H](CO)O[C@H]1NC(=N)NCCC[C@H](NC(=O)[C@H](CCCCN)NC(=O)[C@H](CC(C)C)NC(C)=O)C(=O)N[C@H](C(=O)N[C@@H](Cc1c[nH]c2ccccc12)C(=O)N[C@@H](CCCCN)C(=O)N[C@@H](CCCNC(=N)N)C(=O)N[C@H](C(=O)N[C@@H](Cc1ccccc1)C(=O)N[C@@H](CCCCN)C(=O)N[C@@H](CC(C)C)C(=O)N[C@@H](CC(C)C)C(=O)N[C@@H](CCCCN)C(=O)N[C@@H](CCCNC(=N)N)C(=O)N[C@@H](Cc1ccc(O)cc1)C(=O)N[C@@H](Cc1c[nH]c2ccccc12)C(=O)N[C@@H](CCCNC(=N)N)C(=O)N[C@@H](CCC(N)=O)C(=O)N[C@@H](CC(C)C)C(=O)N[C@@H](CCCCN)C(=O)N[C@@H](CCCCN)C(=O)N1CCC[C@H]1C(=O)N[C@H](C(=O)N[C@@H](CCCNC(=N)N)C(N)=O)C(C)C)C(C)C)C(C)C (Ac-LK[X2]VWKRVFKLLKRYWRQLKKPVR-NH2) | 2.5 µg/mL (≈ 0.72 µM) | 45.2 µg/mL | 5 µg/mL (≈ 1.44 µM) | 38 µg/mL (≈ 10.9 µM) | 9.9 µg/mL (≈ 2.85 µM)
